Series [1] can be described thus: PK study after oral gavage. It counts as in vivo, C57BL/6J mice. Particulars: 50 mg/kg.
Series [2] is described as follows: Storage stability of UsNFs in MQW over 180 days at 37 °C. It counts as physicochemical. Particulars: 37 ± 1 °C. The procedure: The release kinetics of CUR from the UsNFs was also measured for 24 h in simulated gastric fluid (SGF; pH 2.5) and simulated intestinal fluid (SIF; pH 7.0) at 37 ± 1 °C (Fig. 2F). […] Additionally, the stability of UsNFs, which were dissolved at a concentration of 2 mg/mL in MQW, was also tested over 180 days at a temperature of 37 ± 1 °C (Fig. 2G and H). […] The autoxidation, hydrolysis, and degradation-induced content loss of CUR is a significant issue.

Series [3] is described as follows: Stability in SIF (pancreatin + bile salts). It counts as physicochemical. As to conditions: 24 h. The procedure:
To examine the breakdown of nGM@CUR-UsNF and cGM@CUR-UsNF in SGF and SIF, Fӧrster resonance energy transfer (FRET) analysis was conducted. Formulations co-loaded with HIQ and NR (FRET pairs) were prepared by mixing galactomannan or cGM with HIQ (1 mg/mL) and NR (0.4 mg/mL), followed by sonication 150 W and 25 kHz in an ice-water bath and then filtered using a 0.1 μm membrane. Ultimately, the HIQ/NR@cGM was produced by exposing it to a 253.7 nm UV light at 36 W for 90 min. The control sample of HIQ/NR@GM was also prepared. The PS, PDI, and ZP of the prepared formulations were assessed through dynamic laser scattering. The LE was also determined. The prepared formulations were mixed with SGF or SIF in tubes. […] Fluorescence intensities were captured using a SYNERGY/HTX (BioTek, Germany) with the excitation at 510 nm and emission at 635 nm. The FRET ratio was determined using the formula FRET ratio = INR/(INR + IHIQ), where IHIQ and INR represented the fluorescence intensities of HIQ and NR at 510 nm and 635 nm, respectively, with an excitation wavelength of 450 nm. […] CUR retention was measured using HPLC following the separation of the released drug, while particle size was assessed through DLS analysis. The stability of the polymer was evaluated using gel permeation chromatography and a reducing sugar assay. […]

For series [4], the system named is VAN-induced C57BL/6J mouse model. The series can be described thus: VAN-induced intestinal epithelial barrier dysfunction and gut inflammation model. As to conditions: 50 mg/kg oral daily, 10 days after VAN.
Description: This was succeeded by a daily oral administration of 50 mg/kg UsNFs of CUR for another 10 days, whereas the control group (CON) received standard rodent feed and water (Fig. 5A).
For a further series, the system named is gut microbiota. The series can be described thus: 16S rRNA gene sequencing of gut microbiota in VAN-induced mice. It counts as in vivo, C57BL/6 mice. Particulars: heat map-cluster and qPCR analysis. An excerpt: Faecal microbial genomic DNA was isolated and quantified as described elsewhere. Universal primers were employed to facilitate the amplification of the V3 and V4 domains of the 16S rRNA gene. The obtained amplicons were normalized, aligned to create the sequencing library, and sequenced on an Illumina MiSeq (San Diego, USA). The raw data of 16S rRNA gene sequences were filtered based on high error probability (>0.01) and analyzed by QIIME version (1.9.1). We generated OTUs at an identity threshold of 97 % using UPARSE (version 7.0.1001). NMDS plots were developed using PAST version 2.17 [44]. Heatmap profiles were constructed using R Studio software version 3.6.1. To examine the differentially abundant biomarkers between the different groups, LEfSe analysis was performed. Spearman correlational studies were performed to assess the correlations between VAN-induced inflammation-related parameters and gut bacteria and metabolites.

Series [5] can be described thus: Dose determination: body weight and liver weight. It counts as in vivo, C57BL/6 mice. As to conditions: for Final body weight / Liver weight / Rel. liver weight: n = 12. Here is the method:
We first determined the doses of UsNFs and free-CUR in eight-week-old female C57BL/6 mice before systematically evaluating the retention of UsNFs in the GIT and PK of CUR. […] Consequently, 50 mg/kg was identified as the optimal dosage for subsequent in vivo therapeutic assessment of both UsNFs and free-CUR, achieving a balance between efficacy potential, safety, and physiological tolerance.

Setting [6] is: male, C57BL/6J, mouse, CUR in plasma, n = 6.
[7] abbreviates: male, C57BL/6J, mouse, plasma, n = 6.

Where two headings read alike, the source gives them in different places.

In turn, `COc1cc(/C=C/C(=O)CC(=O)/C=C/c2ccc(O)c(OC)c2)ccc1O` [free-CUR, curcumin] yielded a Cmax in series [1] (CUR in plasma, n = 6) of 7.126 ± 0.317 ng/mL. Moreover, in series [1] (setting [6]), the AUC(0-inf) is 10.4 ± 0.683 ng·h/mL and the AUC(0-t) was 7.68 ± 0.218 ng·h/mL. In series [1] (setting [7]), the Tmax was 30 min and the half-life is 64.6 ± 8.22 min. Also, the k el in series [1] (male, C57BL/6J, mouse, plasma, n = 6, read-out: Ke (converted)) is 5.25e-05 s⁻¹. In series [1] (male, C57BL/6J, mouse, plasma, po, CUR in plasma, n = 6, read-out: Cmax), the Cmax is approximately 7.13 ng/mL. The Bioavailability in series [1] (relative to free-CUR, n = 6) amounted to 100.00 ± 29.388%. In series [2], the “CUR content remaining after storage” value came out at 27% and the “CUR degradation during storage” value is reported as “over 73%”. The CUR retained entry in series [3] was “less than 10%”. In series [4], the Colon length entry is “no significant decrease” and the MDA levels entry was “only partially diminished”. Also, in the series with gut microbiota, the “Restoring effect on VAN-altered GM” value was “did not show any significant restoring effects”. Besides, the “Final body weight or relative liver weight compared to normal control” value in series [5] (25 mg/kg and 50 mg/kg) is given as “no significant differences”. In series [5] (25 mg/kg), this compound came in with a Final body weight of 22.02 ± 0.15 g, a Liver weight of 1.06 ± 0.036 g and a Rel. liver weight of 4.81 ± 0.11 Liver wt/100 g b.wt. In addition, in series [5] (50 mg/kg), the Final body weight was 21.6 ± 0.19 g, the Liver weight is listed as 1.05 ± 0.022 g and the Rel. liver weight is 4.86 ± 0.23 Liver wt/100 g b.wt. In series [5] (75 mg/kg), the Final body weight is 16.2 ± 0.21 g, the Liver weight is 1.19 ± 0.038 g and the Rel. liver weight is reported as 7.34 ± 0.16 Liver wt/100 g b.wt.

Source of the values: article PMC12702354, “Engineered an ultrasmall curcumin oral nanoformulation restores intestinal integrity and gut microbiota dysbiosis” (Materials Today Bio, 2025).
